The values below are quoted from earlier work in patent US20230068267A1, “PLANT EXTRACT COMPOSITION FOR THE TREATMENT OF CARDIOVASCULAR AND METABOLIC DISEASES” (Meda Pharma S.p.A., priority 2020, published 2023).

One series has as its target T1, HMG-CoA reductase (Homo sapiens, UniProt P04035).
T1 sequence (P04035 1-888): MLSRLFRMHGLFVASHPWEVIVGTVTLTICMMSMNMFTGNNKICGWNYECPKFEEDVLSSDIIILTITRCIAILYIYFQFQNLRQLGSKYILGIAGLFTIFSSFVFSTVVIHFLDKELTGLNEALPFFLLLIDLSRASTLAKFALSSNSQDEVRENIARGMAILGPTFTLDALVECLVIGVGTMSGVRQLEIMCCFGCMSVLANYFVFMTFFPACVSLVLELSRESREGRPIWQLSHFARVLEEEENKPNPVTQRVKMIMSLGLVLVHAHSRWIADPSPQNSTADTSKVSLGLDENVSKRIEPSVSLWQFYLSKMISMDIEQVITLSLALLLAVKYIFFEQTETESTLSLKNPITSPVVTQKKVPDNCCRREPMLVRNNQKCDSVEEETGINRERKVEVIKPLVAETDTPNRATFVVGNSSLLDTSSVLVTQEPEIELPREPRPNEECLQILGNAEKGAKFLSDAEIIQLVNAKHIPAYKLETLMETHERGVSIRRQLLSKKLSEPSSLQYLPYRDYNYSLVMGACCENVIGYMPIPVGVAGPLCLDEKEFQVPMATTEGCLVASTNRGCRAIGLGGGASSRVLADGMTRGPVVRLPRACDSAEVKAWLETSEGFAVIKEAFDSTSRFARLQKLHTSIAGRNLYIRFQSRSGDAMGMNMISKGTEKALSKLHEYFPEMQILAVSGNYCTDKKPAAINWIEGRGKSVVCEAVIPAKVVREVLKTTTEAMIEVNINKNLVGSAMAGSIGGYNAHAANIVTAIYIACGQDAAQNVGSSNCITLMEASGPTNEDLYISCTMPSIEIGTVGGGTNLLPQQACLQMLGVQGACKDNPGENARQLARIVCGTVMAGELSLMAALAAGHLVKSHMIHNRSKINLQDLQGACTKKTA
Conditions: statin-like properties; Di Donna 2009.

Another series has as its system LDL cholesterol. Conditions: Yu et. al. 2005.

`C[C@@H]1O[C@@H](O[C@@H]2[C@@H](Oc3cc(O)c4c(c3)O[C@H](c3ccc(O)cc3)CC4=O)O[C@@H](COC(=O)C[C@@](C)(O)CC(=O)O)[C@H](O)[C@H]2O)[C@@H](O)[C@H](O)[C@H]1O` [Melitidin]: the “inhibitory action upon HMG-CoA reductase” value on HMG-CoA reductase is “inhibitory action upon HMG-CoA reductase”. As to `COc1ccc([C@@H]2CC(=O)c3c(O)cc(O[C@H]4O[C@@H](COC(=O)C[C@@](C)(O)CC(=O)O)[C@H](O)[C@@H](O)[C@@H]4O[C@@H]4O[C@@H](C)[C@H](O)[C@@H](O)[C@@H]4O)cc3O2)cc1O` [brutieridin], the “inhibitory action upon HMG-CoA reductase” value at HMG-CoA reductase is “inhibitory action upon HMG-CoA reductase”. In the case of Rutin, the “inhibition of the oxidation of LDL cholesterol” value with LDL cholesterol is reported as “inhibit the oxidation of LDL cholesterol”.
